From patent US20050215531A1, “Use of edg receptor binding agents in cancer” (priority 2002, published 2005)

What was measured:
ERK½ MAP kinases = assay: Western blot, activation of ERK½ MAP kinases in HUVEC; assay type: cell-based, human; settings: endothelial cells, 5 minute to 60 minute treatment
Protocol: (§1) Human umbilical vein endothelial cells (HUVEC) are cultured at 37° C. and 5% CO2 in medium M199 supplemented with 20% SCS (HyClone, Logan, Utah), 1 U/ml heparin, 50 μg/ml ECGS, 2 mM glutamine, 100 U/ml penicillin and 0.1 mg/ml streptomycin. Cells are used for experiments up to passage number 5. Short-starved HUVEC are obtained by starving with 1% SCS-containing M199 for 5 h. Recombinant human VEGF165 is obtained from PromoCell (Heidelberg, Germany). Phospho-specific ERK½, p3B kinase polyclonal antibodies, nonphospho ERK½ antibodies and LumiGLO chemiluminescent reagent are from New England BioLabs (Beverly, Mass.), polyclonal IKB antibodies from Santa Cruz Biotechnology (Santa Cruz, Calif.). Peroxidase-conjugated donkey anti-rabbit immunoglobulin G (IgG) and sheep anti-mouse IgG are purchased from Amersham LIFE SCIENCE (Amersham Place, England). lmmobilon-P transfer membranes are products of Millipore (Bedford, Mass.). S is obtained from Sigma Chemical Co.; S1P is from Biomol. Compound A-phosphate stock solution is prepared by the following protocol. Compound A-phosphate is dissolved in methanol tracing with concentrated HCl (0.5 mg Compound A-phosphate in 500 μl of methanol plus 2 μl of HCl). Solvent from the resulting solution is evaporated under vacuum and the residue obtained is redissolved (variant 1) in 0.1% of defatted BSA solution in sterile deionized water (500 μl) or (variant 2) in 0.5% Triton X-100 in deionized water. The resulting stock solutions (2.5 mM) are sonicated and stored at 4° C.
After various treatments, the cells are washed twice with cold PBS, lysed in 100 μl of Laemmli buffer, scraped and heated for 5 min at 95° C. Total cell lysates are separated by SDS-PAGE and transferred to Immobilon-P membrane. The membrane is blocked for 30 minutes with PBS containing 0.1% Tween-20 and 3% skim milk and incubated for 1 hour at RT with a primary antibody diluted in blocking buffer. The membrane obtained is washed three times for 5 minutes with PBS containing 0.1% Tween-20 and incubated with peroxidase-conjugated secondary antibody for 1 hour at RT. After a washing step, the membrane is incubated for 1 minute with ECL reagent and exposed to film as required. For reprobing with another antibody, the membrane is washed twice in PBS, stripped for 30 min at 55° C. with stripping buffer (62.5 mM Tris-HCL, pH 6.8, 2% SDS, 100 mM 2-mercaptoethanol) and washed three times for 5 minutes with PBS at RT. The membrane is stored wet wrapped in SaranWrap at 4° C. after each immunodetection.
Signal transduction via MAP idnases plays a key role in a variety of endothelial cell functions. Treatment of HUVEC with Compound A-phosphate at 0.5 μM may result in transient activation of ERK½ with a peak of phosphorylation/activation at 10 minutes and returning to baseline by 20 minutes (see e.g. FIG. 5). No activation of p38 kinase and JNK½ by Compound A-phosphate is detectable in HUVEC. […] To estimate the possible role of inflammatory/NFκB-dependent program in Compound A-phosphatestimulated bioresponses of endothelial cells, the membranes are reprobed with anti-IκB antibodies. IκB levels are not affected by Compound A-phosphate treatment.

[1] = system: S1P- or VEGF-induced growth of vascularized tissue around the chamber; assay: Antiangiogenic activity, subcutaneous porous chamber (S1P or VEGF) in mice; assay type: in vivo; settings: once a day for 4 days; Compound A orally 0.3, 3, 30 or 50 mg/kg; Compound C enantiomers i.v. 2.5 mg/kg
Protocol: Porous chambers containing (I) sphingosine-1-phosphate (5 μM/chamber) or (ii) human VEGF (1 μg/chamber) in 0.5 ml of 0.8% w/v agar (containing heparin, 20 U/ml) are implanted subcutaneously in the flank of mice. S1P or VEGF induces the growth of vascularized tissue around the chamber. This response is dose-dependent and can be quantified by measuring the weight and blood content of the tissue. Mice are treated once a day (i) orally with Compound A (0.3, 3, 30 or 50 mg/kg) or (ii) intravenously with the R enantiomer of Compound C (2.5 mg/kg) or (iii) intravenously with the S enantiomer of Compound C (2.5 mg/kg) or (iv) orally or intravenously with vehicle (5% glucose, 10 ml/kg), starting 4-6 hours before implantation of the chambers and continuing for 4 days. The animals are sacrificed for measurement of the vascularized tissues 24 h after the last dose. The weight and blood content of the vascularized tissues around the chamber is determined. Animals treated with Compound A or with the R or S enantiomer of Compound C show reduced weight and/or blood content of the vascularized tissues compared to animals treated with vehicle alone.

[2] = Acute toxicity p.o. in monkeys
HUVEC = assay: In vitro angiogenesis (tube formation) assay on Matrigel; assay type: cell-based, human
Protocol: as §1
Morphogenesis of endothelial cells into capillary-like structures on Growth Factor Reduced Matrigel Matrix (BD Bioscience) is performed according to the manufacture procedure. Briefly, HUVEC are trypsinized, resuspended in serum-free Ml 99 medium containing soybean trypsin inhibitor (1 mg/ml, Sigma). After centrifugation cells are resuspended in serum-free medium at a density 0.5×10^5 cells/ml, and cell suspension is seeded in 96-well cell culture plates (Costar, Corning Incorporated) precoated with 50 μl of Matrigel in the absence or presence of various stimuli: VEGF at 1.5 nM, S1P at 0.1-2 μM, S at 0.5-2 μM, Compound A at 0.5-2 μM, and Compound A-phosphate at 0.1-2 μM. Eight hours later, cells on Matrigel are fixed with 3% formaldehyde in PBS and kept at 4° C. Results are quantitated from images made with a Nikon Diaphot microscope equipped with a cooled CCD camera (Kappa GmbH, Gleichen, Germany) by direct counting of branching points on two microscopic fields from each well done in duplicates.
The effect of Compound A and Compound A-phosphate on morphogenic differentiation of endothelial cells is determined using an in vitro angiogenesis assay on Matrigel. Endothelial cell morphogenesis is a complex process that requires cell-extracellular matrix interactions, followed by matrix remodelling, stimulated migration, cell-cell interactions, and perivascular proteolysis. […] This may be interpreted as a possible involvement of EDG-1 (S1P1) receptor-mediated signaling events in Compound A-phosphate-stimulated bioresponses (see e.g. FIG. 3). […] Importantly, high concentrations of S and Compound A (2-5 μM) inhibited VEGF-triggered tube formation.

[3] = Acute toxicity p.o. in rats
tissue factor = assay: Clotting assay, tissue factor activity on HUVEC; assay type: cell-based, human
Protocol: as §1
Cells are seeded in 6-well plates at 80-90% confluency and grown overnight. Cells are scraped from the plates and analyzed for tissue factor activity according to the method as described in Clauss, M., J. Biol. Chem. 271,17629-17634 (1996), Mechtcheriakova, D., Blood 93,3811-3823 (1999). Briefly, after induction for 4 hours with VEGF (1.5 nM), TNF-α (100 U/ml), S (0.5-2 μM), S1P (0.5-2 μM), Compound A (0.5-2 μM), and Compound A-phosphate (0.5-2 μM), cells are washed twice and then scraped in 1 ml clotting buffer (12 mM sodium acetate, 7 mM diethylbarbitate and 130 mM sodium chloride; pH 7.4). 50 μl of resuspended cells are mixed with 50 μl of citrated plasma, and clotting times are determined after recalcfication with 50 μl of 20 mM CaCl2 solution at 37° C. TF-equivalents are determined by using a standard curve obtained from rabbit brain thromboplastin.
An important characteristic feature of both classical inflammatory stimulus TNF-α and the main angiogenic growth factor VEGF on endothellal cells is their potency to upregulate tissue factor. Compound A, Compound A-phosphate, S or S1P are tested whether they also do induce tissue factor on HUVEC. […] The data obtained together indicate that Compound A, Compound A-phosphate, S and S1P mechanistically work distinctly to anglogenic VEGF and inflammatory TNF-α.

[4] = system: mouse breast cancer cell line JygMC(A); assay: In vitro antitumor activity: proliferation of synchronised mouse breast cancer cells; assay type: cell-based; settings: hydrochloride salt form, Coulter counter and SRB colorimetric assay
Protocol: A mouse breast cancer cell line originally isolated from mammary carcinomas is used, e.g. JygMC(A). The cell number is adjusted to 5×10^5 for plating in fresh medium before the procedure. Cells are incubated with fresh medium containing 2.5 mM of thymidine without FCS for 12 h and then washed twice with PBS, followed by addition of fresh medium with 10% FCS and additionally incubated for another 12 h. Thereafter the cells are incubated with fresh medium containing 2.5 mM of thymidine without FCS for 12 h. To release the cells from the block, the cells are washed twice with PBS and replated in fresh medium with 10% FCS. After synchronisation the cells are incubated with or without various concentrations of a compound of formula I for 3, 6, 9, 12, 18 or 24 h. The cells are harvested after treatment with 0.2% EDTA, fixed with ice-cold 70% ethanol solution, hydrolyzed with 250 μg/ml of RNaseA (type 1-A: Sigma Chem. Co.) at 37° C. for 30 mn and stained with propidium iodide at […] for 20 mn. After the incubation period, the number of cells is determined both by counting cells in a Coulter counter and by the SRB colorimetric assay. Under these conditions an S1P agonist, e.g. Compound B in hydrochloride salt form, inhibits the proliferation of the tumor cells at concentrations ranging from 10^−12 to 10^−6 M.

[5] = system: human A375 melanoma cells; assay: In vivo antitumor activity, A375 melanoma transplanted into BALB/c-nu/nu mice; settings: hydrochloride salt form, 0.5 to 5 mg/kg, 2 week treatment
From the text: Antitumor activity is expressed as T/C% (mean increase in tumor volumes of treated animals divided by the mean increase of tumor volumes of control animals multiplied by 100).
Aliquots of cancer cells (1×10^7), e.g. human A375 melanoma cells, are transplanted into BALB/c-nu/nu mice. When the tumors have reached ca. 10×10 mm in size, the animals are assigned randomly to four subgroups and the treatment with a compound of formula I is initiated. Animals are sacrificed after 2 week treatment, at which times tumors and tissues are harvested and prepared for morphological and molecular analysis. The size of the tumors is determined with a caliper.

SMILES	MAP kinase activation (ERK½ MAP kinases)	weight and/or blood content of the vascularized tissues compared to vehicle [1]	acute LD60 [2]	effect on capillary-like network formation (HUVEC; 0.5-1 μM)	effect on VEGF-mediated remodelling (HUVEC; 0.5-1 μM, with VEGF)	effect on VEGF-triggered tube formation (HUVEC; high concentrations, 2-5 μM)	acute LD60 [3]	effect on TNF-α-induced tissue factor (tissue factor; TNF-α 100 U/ml)	effect on VEGF-induced tissue factor (tissue factor; VEGF 1.5 nM)	tissue factor activity (tissue factor; compound alone or in combinations, 0.5-2 μM, 4 hours)	concentrations at which the proliferation of the tumor cells is inhibited [4]	tumor growth vs saline control [5]
CCCCCCCCc1ccc(CCC(N)(CO)CO)cc1.Cl [Compound A, 2-amino-2-[2-(4-octylphenyl)ethyl]propane-1 ,3-diol]	Neither Compound A nor S are able to induce MAP kinase activation	reduced	> 10 mg/kg	weak, in comparison to Compound A-phosphate, but consistent enhancing effect	does not attenuate	inhibited	> 10 mg/kg	not TNF-α-induced	slightly enhance	none of these compounds alone or in combinations may elevate tissue factor activity	–	–
NC(CO)(CO)CCc1ccc(C(=O)CCCCc2ccccc2)cc1 [Compound B, 2-amino-2-{2-[4-(1-oxo-5-phenylpentyl)phenyl]ethyl}propane-1,3-diol]	–	–	–	–	–	–	–	–	–	–	10^−12 to 10^−6 M	slows tumor growth
CCCCCCCOc1ccc(CCC(C)(N)CO)cc1 (stereo not drawn) [R enantiomer of Compound C, 2-amino-4-(4heptyloxyphenyl)-2-methyl-butanol]	–	reduced	–	–	–	–	–	–	–	–	–	–
